Source: the NIST ThermoML archive (doi:10.1016/j.fluid.2017.11.013)
Values joined by “and” are separate entries in the source; they are usually repeats but may differ in a detail not shown here. Identical values can stand only once.

Conditions: Coaxial cylinder method

C=C [ethene]
Conditions | thermal conductivity
283.47 K, 101 kPa, Gas | 0.01865 W/m/K
283.47 K, 4620 kPa, Fluid (supercritical or subcritical phases) | 0.03417 W/m/K
283.47 K, 4770 kPa, Fluid (supercritical or subcritical phases) | 0.03732 W/m/K
283.47 K, 4910 kPa, Fluid (supercritical or subcritical phases) | 0.04251 W/m/K
283.47 K, 4960 kPa, Fluid (supercritical or subcritical phases) | 0.04566 W/m/K
283.47 K, 5050 kPa, Fluid (supercritical or subcritical phases) | 0.05593 W/m/K
283.47 K, 5090 kPa, Fluid (supercritical or subcritical phases) | 0.06391 W/m/K
283.47 K, 5120 kPa, Fluid (supercritical or subcritical phases) | 0.07425 W/m/K
283.47 K, 5140 kPa, Fluid (supercritical or subcritical phases) | 0.09013 W/m/K
283.47 K, 5150 kPa, Fluid (supercritical or subcritical phases) | 0.1049 W/m/K and 0.1032 W/m/K
283.47 K, 5160 kPa, Fluid (supercritical or subcritical phases) | 0.1241 W/m/K
283.47 K, 5170 kPa, Fluid (supercritical or subcritical phases) | 0.1339 W/m/K
283.47 K, 5180 kPa, Fluid (supercritical or subcritical phases) | 0.1143 W/m/K
283.47 K, 5190 kPa, Fluid (supercritical or subcritical phases) | 0.09843 W/m/K
283.47 K, 5200 kPa, Fluid (supercritical or subcritical phases) | 0.09006 W/m/K and 0.0888 W/m/K
283.47 K, 5210 kPa, Fluid (supercritical or subcritical phases) | 0.08522 W/m/K
283.47 K, 5220 kPa, Fluid (supercritical or subcritical phases) | 0.08191 W/m/K
283.47 K, 5230 kPa, Fluid (supercritical or subcritical phases) | 0.07984 W/m/K
283.47 K, 5240 kPa, Fluid (supercritical or subcritical phases) | 0.07787 W/m/K
283.47 K, 5250 kPa, Fluid (supercritical or subcritical phases) | 0.076 W/m/K
283.47 K, 5290 kPa, Fluid (supercritical or subcritical phases) | 0.07419 W/m/K
283.47 K, 5300 kPa, Fluid (supercritical or subcritical phases) | 0.07248 W/m/K
283.47 K, 5370 kPa, Fluid (supercritical or subcritical phases) | 0.07203 W/m/K
283.47 K, 5390 kPa, Fluid (supercritical or subcritical phases) | 0.07122 W/m/K
283.47 K, 5440 kPa, Fluid (supercritical or subcritical phases) | 0.06948 W/m/K
283.47 K, 5480 kPa, Fluid (supercritical or subcritical phases) | 0.06848 W/m/K
283.47 K, 5540 kPa, Fluid (supercritical or subcritical phases) | 0.06774 W/m/K
283.47 K, 5730 kPa, Fluid (supercritical or subcritical phases) | 0.06774 W/m/K
283.47 K, 5820 kPa, Fluid (supercritical or subcritical phases) | 0.06848 W/m/K
283.47 K, 5930 kPa, Fluid (supercritical or subcritical phases) | 0.06847 W/m/K
283.47 K, 6220 kPa, Fluid (supercritical or subcritical phases) | 0.07041 W/m/K
283.47 K, 6490 kPa, Fluid (supercritical or subcritical phases) | 0.07152 W/m/K
283.47 K, 6720 kPa, Fluid (supercritical or subcritical phases) | 0.07259 W/m/K
283.47 K, 6980 kPa, Fluid (supercritical or subcritical phases) | 0.07316 W/m/K
283.47 K, 7060 kPa, Fluid (supercritical or subcritical phases) | 0.07329 W/m/K
283.47 K, 7200 kPa, Fluid (supercritical or subcritical phases) | 0.07345 W/m/K
283.47 K, 7610 kPa, Fluid (supercritical or subcritical phases) | 0.07519 W/m/K
283.47 K, 8250 kPa, Fluid (supercritical or subcritical phases) | 0.07664 W/m/K
283.47 K, 8910 kPa, Fluid (supercritical or subcritical phases) | 0.07874 W/m/K
283.96 K, 101 kPa, Gas | 0.01869 W/m/K
283.96 K, 3380 kPa, Fluid (supercritical or subcritical phases) | 0.02528 W/m/K
283.96 K, 3960 kPa, Fluid (supercritical or subcritical phases) | 0.02767 W/m/K
283.96 K, 4620 kPa, Fluid (supercritical or subcritical phases) | 0.03396 W/m/K
283.96 K, 4970 kPa, Fluid (supercritical or subcritical phases) | 0.04334 W/m/K
283.96 K, 5050 kPa, Fluid (supercritical or subcritical phases) | 0.04855 W/m/K
283.96 K, 5090 kPa, Fluid (supercritical or subcritical phases) | 0.05262 W/m/K
283.96 K, 5110 kPa, Fluid (supercritical or subcritical phases) | 0.05631 W/m/K
283.96 K, 5120 kPa, Fluid (supercritical or subcritical phases) | 0.05987 W/m/K
283.96 K, 5150 kPa, Fluid (supercritical or subcritical phases) | 0.06832 W/m/K
283.96 K, 5190 kPa, Fluid (supercritical or subcritical phases) | 0.08914 W/m/K
283.96 K, 5200 kPa, Fluid (supercritical or subcritical phases) | 0.1005 W/m/K
283.96 K, 5210 kPa, Fluid (supercritical or subcritical phases) | 0.11 W/m/K
283.96 K, 5220 kPa, Fluid (supercritical or subcritical phases) | 0.1162 W/m/K
283.96 K, 5230 kPa, Fluid (supercritical or subcritical phases) | 0.1119 W/m/K
283.96 K, 5240 kPa, Fluid (supercritical or subcritical phases) | 0.1008 W/m/K
283.96 K, 5260 kPa, Fluid (supercritical or subcritical phases) | 0.08675 W/m/K
283.96 K, 5270 kPa, Fluid (supercritical or subcritical phases) | 0.08189 W/m/K
283.96 K, 5290 kPa, Fluid (supercritical or subcritical phases) | 0.0783 W/m/K
283.96 K, 5300 kPa, Fluid (supercritical or subcritical phases) | 0.07641 W/m/K
283.96 K, 5340 kPa, Fluid (supercritical or subcritical phases) | 0.07293 W/m/K
283.96 K, 5400 kPa, Fluid (supercritical or subcritical phases) | 0.07163 W/m/K
283.96 K, 5500 kPa, Fluid (supercritical or subcritical phases) | 0.06977 W/m/K
283.96 K, 5590 kPa, Fluid (supercritical or subcritical phases) | 0.06886 W/m/K
283.96 K, 5740 kPa, Fluid (supercritical or subcritical phases) | 0.06796 W/m/K
283.96 K, 5920 kPa, Fluid (supercritical or subcritical phases) | 0.06854 W/m/K
283.96 K, 6140 kPa, Fluid (supercritical or subcritical phases) | 0.06972 W/m/K
283.96 K, 6310 kPa, Fluid (supercritical or subcritical phases) | 0.0703 W/m/K
283.96 K, 6530 kPa, Fluid (supercritical or subcritical phases) | 0.0709 W/m/K
283.96 K, 6710 kPa, Fluid (supercritical or subcritical phases) | 0.07122 W/m/K
283.96 K, 7100 kPa, Fluid (supercritical or subcritical phases) | 0.07249 W/m/K
284.89 K, 101 kPa, Gas | 0.01877 W/m/K
284.89 K, 680 kPa, Fluid (supercritical or subcritical phases) | 0.02012 W/m/K
284.89 K, 1170 kPa, Fluid (supercritical or subcritical phases) | 0.02064 W/m/K
284.89 K, 2430 kPa, Fluid (supercritical or subcritical phases) | 0.02241 W/m/K
284.89 K, 3520 kPa, Fluid (supercritical or subcritical phases) | 0.02591 W/m/K
284.89 K, 4330 kPa, Fluid (supercritical or subcritical phases) | 0.03024 W/m/K
284.89 K, 4740 kPa, Fluid (supercritical or subcritical phases) | 0.03518 W/m/K
284.89 K, 4900 kPa, Fluid (supercritical or subcritical phases) | 0.03781 W/m/K
284.89 K, 5030 kPa, Fluid (supercritical or subcritical phases) | 0.04219 W/m/K
284.89 K, 5100 kPa, Fluid (supercritical or subcritical phases) | 0.04581 W/m/K
284.89 K, 5160 kPa, Fluid (supercritical or subcritical phases) | 0.05257 W/m/K
284.89 K, 5200 kPa, Fluid (supercritical or subcritical phases) | 0.05764 W/m/K
284.89 K, 5240 kPa, Fluid (supercritical or subcritical phases) | 0.0653 W/m/K
284.89 K, 5260 kPa, Fluid (supercritical or subcritical phases) | 0.06948 W/m/K
284.89 K, 5290 kPa, Fluid (supercritical or subcritical phases) | 0.08267 W/m/K
284.89 K, 5310 kPa, Fluid (supercritical or subcritical phases) | 0.09324 W/m/K
284.89 K, 5320 kPa, Fluid (supercritical or subcritical phases) | 0.09654 W/m/K
284.89 K, 5340 kPa, Fluid (supercritical or subcritical phases) | 0.09916 W/m/K
284.89 K, 5360 kPa, Fluid (supercritical or subcritical phases) | 0.08875 W/m/K
284.89 K, 5380 kPa, Fluid (supercritical or subcritical phases) | 0.08399 W/m/K
284.89 K, 5400 kPa, Fluid (supercritical or subcritical phases) | 0.07691 W/m/K
284.89 K, 5430 kPa, Fluid (supercritical or subcritical phases) | 0.07429 W/m/K
284.89 K, 5460 kPa, Fluid (supercritical or subcritical phases) | 0.07184 W/m/K
284.89 K, 5490 kPa, Fluid (supercritical or subcritical phases) | 0.06955 W/m/K
284.89 K, 5530 kPa, Fluid (supercritical or subcritical phases) | 0.06954 W/m/K
284.89 K, 5600 kPa, Fluid (supercritical or subcritical phases) | 0.06952 W/m/K
284.89 K, 5610 kPa, Fluid (supercritical or subcritical phases) | 0.06954 W/m/K
284.89 K, 5670 kPa, Fluid (supercritical or subcritical phases) | 0.06864 W/m/K
284.89 K, 5780 kPa, Fluid (supercritical or subcritical phases) | 0.06822 W/m/K
284.89 K, 5890 kPa, Fluid (supercritical or subcritical phases) | 0.06866 W/m/K
284.89 K, 6170 kPa, Fluid (supercritical or subcritical phases) | 0.06954 W/m/K
284.89 K, 6530 kPa, Fluid (supercritical or subcritical phases) | 0.07045 W/m/K
284.89 K, 7030 kPa, Fluid (supercritical or subcritical phases) | 0.07139 W/m/K
284.89 K, 7500 kPa, Fluid (supercritical or subcritical phases) | 0.07332 W/m/K
284.89 K, 8190 kPa, Fluid (supercritical or subcritical phases) | 0.07593 W/m/K
284.89 K, 8580 kPa, Fluid (supercritical or subcritical phases) | 0.07756 W/m/K
284.89 K, 8590 kPa, Fluid (supercritical or subcritical phases) | 0.07756 W/m/K
284.89 K, 9070 kPa, Fluid (supercritical or subcritical phases) | 0.07866 W/m/K
284.89 K, 9530 kPa, Fluid (supercritical or subcritical phases) | 0.07924 W/m/K
284.89 K, 9990 kPa, Fluid (supercritical or subcritical phases) | 0.08043 W/m/K
284.89 K, 10010 kPa, Fluid (supercritical or subcritical phases) | 0.08041 W/m/K
285.04 K, 5080 kPa, Fluid (supercritical or subcritical phases) | 0.04457 W/m/K
285.04 K, 5100 kPa, Fluid (supercritical or subcritical phases) | 0.04514 W/m/K
285.04 K, 5210 kPa, Fluid (supercritical or subcritical phases) | 0.05584 W/m/K
285.04 K, 5270 kPa, Fluid (supercritical or subcritical phases) | 0.06826 W/m/K
285.04 K, 5300 kPa, Fluid (supercritical or subcritical phases) | 0.07918 W/m/K
285.04 K, 5340 kPa, Fluid (supercritical or subcritical phases) | 0.09492 W/m/K
285.04 K, 5350 kPa, Fluid (supercritical or subcritical phases) | 0.09641 W/m/K
285.04 K, 5370 kPa, Fluid (supercritical or subcritical phases) | 0.09081 W/m/K
285.04 K, 5420 kPa, Fluid (supercritical or subcritical phases) | 0.07925 W/m/K
285.04 K, 5490 kPa, Fluid (supercritical or subcritical phases) | 0.07233 W/m/K
285.04 K, 5640 kPa, Fluid (supercritical or subcritical phases) | 0.06952 W/m/K
285.04 K, 6040 kPa, Fluid (supercritical or subcritical phases) | 0.06871 W/m/K and 0.0687 W/m/K
285.04 K, 6050 kPa, Fluid (supercritical or subcritical phases) | 0.06846 W/m/K
285.04 K, 6140 kPa, Fluid (supercritical or subcritical phases) | 0.06843 W/m/K
285.04 K, 6150 kPa, Fluid (supercritical or subcritical phases) | 0.06861 W/m/K
